Values after ≈ are worked out from the molar mass of the structure shown. Where no end group is shown, it is not given here.
What was measured:
P. aeruginosa TRPA108 = format: cell-based; conditions: MDR strain TRPA108 isolated from cystic fibrosis patients
mouse lungs = experiment: Pulmonary toxicity in uninfected mice; format: in vivo, C57BL/6J mice; conditions: for pulmonary toxicity: 0.35 mg/kg i.t., total inflammatory cells, differential cell counts, inflammation-associated genes; for effect on cell differential and inflammatory mediators in the lungs: uninfected mice, 7µg i.t. (7 times the minimum effective dose), 24h
P. aeruginosa P001 = format: cell-based; conditions: MDR strain P001 isolated from cystic fibrosis patients
P. aeruginosa P004 = format: cell-based; conditions: MDR strain P004 isolated from cystic fibrosis patients
P. aeruginosa P005 = format: cell-based; conditions: MDR strain P005 isolated from cystic fibrosis patients
[1] = tested on: differentiated primary HBE cells; experiment: Transepithelial Electrical Resistance; format: cell-based, human; conditions: apical, 24 hours after administration
P. aeruginosa TRPA321 = format: cell-based; conditions: MDR strain TRPA321 isolated from cystic fibrosis patients
P. aeruginosa P002 = format: cell-based; conditions: MDR strain P002 isolated from cystic fibrosis patients
P. aeruginosa TRPA111 = format: cell-based; conditions: MDR strain TRPA111 isolated from cystic fibrosis patients
P. aeruginosa P003 = format: cell-based; conditions: MDR strain P003 isolated from cystic fibrosis patients
HBE cells = experiment: Toxicity to HBE cells; format: cell-based, human; conditions: 16µM
P. aeruginosa PAO1 = format: cell-based; conditions: control strain PAO1 susceptible to antibiotics and AMPs

CC[C@H](C)[C@H](NC(=O)[C@H](CCCCN)NC(=O)[C@H](CCC(=O)O)NC(=O)[C@H](CCCCN)NC(=O)[C@H](CO)NC(=O)[C@H](CCCCN)NC(=O)[C@H](CCCNC(=N)N)NC(=O)[C@H](Cc1ccccc1)NC(=O)[C@H](Cc1ccccc1)NC(=O)[C@H](CC(=O)O)NC(=O)CNC(=O)[C@H](CC(C)C)NC(=O)[C@@H](N)CC(C)C)C(=O)NCC(=O)N[C@@H](CCCCN)C(=O)N[C@@H](CCC(=O)O)C(=O)N[C@@H](Cc1ccccc1)C(=O)N[C@@H](CCCCN)C(=O)N[C@@H](CCCNC(=N)N)C(=O)N[C@H](C(=O)N[C@H](C(=O)N[C@@H](CCC(N)=O)C(=O)N[C@@H](CCCNC(=N)N)C(=O)N[C@H](C(=O)N[C@@H](CCCCN)C(=O)N[C@@H](CC(=O)O)C(=O)N[C@@H](Cc1ccccc1)C(=O)N[C@@H](CC(C)C)C(=O)N[C@@H](CCCNC(=N)N)C(=O)N[C@@H](CC(N)=O)C(=O)N[C@@H](CC(C)C)C(=O)N[C@H](C(=O)N1CCC[C@H]1C(=O)N[C@@H](CCCNC(=N)N)C(=O)N[C@H](C(=O)N[C@@H](CCC(=O)O)C(=O)N[C@@H](CO)C(=O)O)[C@@H](C)O)C(C)C)[C@@H](C)CC)C(C)C)[C@@H](C)CC [LL37, reference compound]
MIC (P. aeruginosa TRPA108): 2 µM (≈ 8.99 µg/mL)
pulmonary toxicity (mouse lungs): does not cause pulmonary toxicity
effect on cell differential and inflammatory mediators in the lungs (mouse lungs): no effect
MIC (P. aeruginosa P001): 32 µM (≈ 144 µg/mL)
MIC (P. aeruginosa P004): 8 µM (≈ 35.9 µg/mL)
MIC (P. aeruginosa P005): 8 µM (≈ 35.9 µg/mL)
final reduction in TEER / recovery ([1]; 32µM peptide in PBS): 1/2
final reduction in TEER / recovery ([1]; 64µM peptide in PBS): 2/3
MIC (P. aeruginosa TRPA321): 32 µM (≈ 144 µg/mL)
MIC (P. aeruginosa P002): 32 µM (≈ 144 µg/mL)
MIC (P. aeruginosa TRPA111): 2 µM (≈ 8.99 µg/mL)
MIC (P. aeruginosa P003): 32 µM (≈ 144 µg/mL)

RRWVRRVRRVWRRVVRVVRRWVRR [WLBU2]
MIC (P. aeruginosa TRPA108): 1 µM
pulmonary toxicity (mouse lungs): does not cause pulmonary toxicity
effect on cell differential and inflammatory mediators in the lungs (mouse lungs): no effect
MIC (P. aeruginosa P001): 6 µM
MIC (P. aeruginosa P004): 2 µM
MIC (P. aeruginosa P005): 2 µM
final reduction in TEER / recovery ([1]; 32µM peptide in PBS): completely recovered
final reduction in TEER / recovery ([1]; 64µM peptide in PBS): completely recovered
MIC (P. aeruginosa TRPA321): 2 µM
MIC (P. aeruginosa P002): 4 µM
MIC (P. aeruginosa TRPA111): 1 µM
toxicity to HBE cells (HBE cells): not toxic
MIC (P. aeruginosa P003): 6 µM
MIC (P. aeruginosa PAO1): 2 µM
